Source: PMC2821522 (Journal of Clinical Immunology, 2009)
Where two headings read alike, the source gives them in different places.

Legend:
Type in all cases: cell-based, human
[1] = test system: PBMC (immune recognition, gamma interferon-secreting T cells)
CD4+ T cells = experiment: Flow cytometry / intracellular cytokine staining, CD4+ T cells; settings: sarcoidosis subjects, in words, Fig. 1
[2] = test system: expanded sarcoidosis CD4+ T cell lines; antigen presented by Sweig cells (HLA DRB1*1101 and DRB3*0202)

WTNTPTKWDNSFLEI [katG peptide 13]
subjects recognizing the peptide [1]: Seven of the eight | subjects recognizing the peptide ([1]; PPD− control subjects): none | CD4+ T cell response (CD4+ T cells; listed as katG): CD4+ T cell recognition of katG was also detected | CD4+ T cell response (CD4+ T cells; listed as katG peptide): strong CD4+ T cells response | immune response (CD4+ IFN-γ) [2]: minimal response | immune response (CD4+ IFN-γ) ([2]; katG-expanded line of Sarcoidosis 6, with Sweig cells, Fig. 4, listed as katG peptides): strong CD4+ responses
